Reference: patent US9017950B2, “Method for enhancing enzyme assays” (Luminescent MD, LLC, priority 2011, dated 2015)

Legend:
Type in all cases: biochemical
[1] = target: T1, HRP (Armoracia rusticana, UniProt P00433); experiment: Enzyme assay with OD4MI CL detection to quantify HRP in the presence of surfactant; conditions: for dynamic range of enzyme assay for quantifying HRP compared with absence of surfactant: surfactant at critical micelle concentration
T1 construct: purchased Sigma
T1 sequence (P00433 31-338 limits assumed): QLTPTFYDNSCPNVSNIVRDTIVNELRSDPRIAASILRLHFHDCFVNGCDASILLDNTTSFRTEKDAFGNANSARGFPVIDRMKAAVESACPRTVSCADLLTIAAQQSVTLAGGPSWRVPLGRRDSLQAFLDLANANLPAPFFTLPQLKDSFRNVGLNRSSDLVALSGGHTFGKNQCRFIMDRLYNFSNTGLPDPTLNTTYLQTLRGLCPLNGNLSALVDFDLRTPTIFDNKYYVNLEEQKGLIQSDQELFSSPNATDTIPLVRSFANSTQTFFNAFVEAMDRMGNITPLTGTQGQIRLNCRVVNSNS
Protocol: Various concentrations (0.5, 1.0, and 1.5%) of Triton® X surfactant derivatives (Triton® X-100, Triton® X-114, Triton® X-405, and Triton® X-705) were prepared in Tris-HCl buffer solution (pH 8.5).
Various surfactants (e.g., (2-Hydroxypropyl)-β-cyclodetrin, β-cyclodextrin, Carboxymethyl-β-cyclodextrin, Carbomethyl-β-cyclodextrin sodium salt, γ-cyclodextrin, Sodium dodecyl sulfate, Hexadecyltrimethylammonium bromide, Hexadecyltrimethylammonium chloride) of critical micelle concentration (CMC) were prepared in Tris-HCl buffer solution (pH 8.5).
As a substrate for ODI derivative CL detection, 2.0 μM Amplex® Red reagent in deionized water was prepared.
Various concentrations (0˜0.1 U/ml) of HRP containing 2.0 mM H2O2 was prepared in Tris-HCl buffer solution (pH 8.5).
1,1′-Oxalyldi-4-methyl-imidazole (OD4MI), one of ODI derivatives was formed from the reaction between 5.0 μM TCPO, and 10.0 μM 4-Methylimidazole (4MImH) in Ethyl acetate. 100 mM H2O2 was prepared in Isopropyl alcohol.
• 5. Mix and incubate 0.8 ml of Amplex® Red reagent (or deionized water), 0.1 ml of surfactant, one of various surfactants used in this research, and 0.1 ml of HRP containing H2O2 for 10 minutes in a 1.5 ml-centrifuge tube at room temperature. • 6. Pipette 10 μl of working solution into the assigned test tube (12×75 mm) or strip well. • 7. Insert the test tube into a luminometer or the strip well into a microplate luminometer. • 8. Read CL emitted when OD4MI and H2O2 are added into the test tube or strip well through two dispensers.

[2] = target: T2, AFP detection antibody-HRP conjugate (Armoracia rusticana, UniProt P00433); experiment: Quantification of AFP using AFP detection antibody-HRP conjugate and OD4MI CL detection in the presence of Triton X-100; conditions: 0.1% Triton X-100, OD4MI CL detection, FIG. 6
T2 construct: AFP detection antibody (conjugated)
T2 sequence (P00433 31-338 limits assumed): T1 sequence (P00433 31-338 limits assumed)
Protocol: (§1) AccuLite® CLIA kit capable of quantifying AFP with luminol CL detection was used to develop new CLEIA method using OD4MI CL detection in the presence of 0.1% Triton® X-100 surfactant. The kit is composed of 96 strip wells coated with monoclonal AFP primary antibody, AFP detection antibody-HRP conjugate, luminol as a substrate, reaction buffer, and washing buffer.
2.0 μM Amplex® Red reagent and 0.2 mM H2O2 in deionized water were prepared in water containing 0.1% Triton® X-100 surfactant.
(§2) OD4MI was formed from the reaction between 5.0 μM TCPO and 10.0 μM 4-Methylimidazole (4MImH) in Ethyl acetate. 100 mM H2O2 was prepared in Isopropyl alcohol.
• 12. Pipette 25 μl of AFP standard or test sample into a strip well. • 13. Add 100 μl of AFP detection antibody-HRP conjugate to the strip well • 14. Swirl the strip wells for 20 seconds. • 15. Incubate for 30 minutes at 37° C. • 16. Discard the contents of each strip wells. • 17. Wash each plate with 300 μl washing buffer. Repeat four additional times. • 18. Add 100 μl working solution containing 2.0 μM Amplex® Red reagent, 0.2 mM H2O2 and 0.1% Triton® X-100 surfactant in the strip well. • 19. […] Read (integration time: 0.5 seconds) emitted CL for 0.5 seconds when OD4MI and H2O2 are added into the test tube or strip well through two dispensers.

[3] = target: T3, PSA detection antibody-HRP conjugate (Armoracia rusticana, UniProt P00433); experiment: Quantification of PSA using PSA detection antibody-HRP conjugate and OD4MI CL detection (CLEIA) in the presence of catalyst
T3 construct: PSA detection antibody (conjugated)
T3 sequence (P00433 31-338 limits assumed): T1 sequence (P00433 31-338 limits assumed)
Protocol: as §1, with “PSA” for “AFP”, “ODI derivative” for “OD4MI”, “detection.” for “detection in the presence of 0.1% Triton® X-100 surfactant.”
8 different PSA serum samples (0, 0.5, 1, 2, 5, 10, 25, 50 ng/ml), components of AccuLite® CLIA kit, were used as standard samples.
2.0 μM Amplex® Red reagent and 0.2 mM H2O2 in deionized water were prepared as described in Example 1 (A).
0.5 mM 4-Iodophenol was prepared in Tris-HCl buffer solution (pH 8.5).
2.0 mM 4-(1,2,4-triazol-1-yl) phenol was prepared in Tris-HCl buffer solution (pH 8.5).
0.8 ml of aqueous solution containing Amplex® Red reagent (2.0 μM) and H2O2 (0.2 mM) was mixed with 0.2 ml of 4-Iodophenol (or 2.0 mM 4-(1,2,4-triazol-1-yl) phenol).
as §2
• 12. Pipette 25 μl of PSA standard or test sample into a strip well. • 13. Add 100 μl of PSA detection antibody-HRP conjugate to the strip well • 14. Swirl the strip wells for 20 seconds. • 15. Incubate for 20 minutes at 37° C. • 16. Discard the contents of each strip wells. • 17. Wash each plate with 300 μl washing buffer. Repeat four additional times. • 18. Add 100 μl working solution containing 2.0 μM Amplex® Red reagent and 0.2 mM H2O2 to each strip well. • 19. Incubate the strip-well containing Amplex® Red reagent, H2O2, and 4-Iodophenol (or 2.0 mM 4-(1,2,4-triazol-1-yl) phenol) for 5.0 minutes at room temperature (21˜23° C.) in the dark. • 20. Pipette 10 μl of working solution into the assigned test tube (12×75 mm). • 21. Insert the test tube into a luminometer or the strip well into a microplate luminometer. • 22. Read (integration time: 0.5 seconds) emitted CL for 0.5 seconds when OD4MI and H2O2 are added into the test tube or strip well through two dispensers.

| Molecule | dynamic range of enzyme assay for quantifying HRP compared with absence of surfactant ([1]; OD4MI CL detection) | other results |
| --- | --- | --- |
| CCCCCCCCCCCCCCCC[N+](C)(C)C.[Cl-] [Hexadecyltrimethylammonium chloride] | wider than that in the absence of surfactant | – |
| Carbomethyl-β-cyclodextrin sodium salt | wider than that in the absence of surfactant | – |
| Triton® X-100 | – | linear dynamic range for quantification of AFP [2]: 0˜1250 ng/ml; dynamic range to quantify HRP compared with other Triton X derivatives ([1]; 1.0% surfactant, FIG. 5): wider than those in other Triton® X surfactant derivatives; effect on the reaction between Amplex Red reagent and H2O2 in the presence of HRP ([1]; OD4MI CL detection, FIG. 3 to 5): acting to interfere; dynamic range of enzyme assay to quantify HRP, upper end ([1]; higher Triton X-100 concentration, OD4MI CL detection, room temperature, FIG. 3): up to 0.1 U/ml |
| OC[C@H]1O[C@@H]2O[C@H]3[C@H](O)[C@@H](O)[C@@H](O[C@H]4[C@H](O)[C@@H](O)[C@@H](O[C@H]5[C@H](O)[C@@H](O)[C@@H](O[C@H]6[C@H](O)[C@@H](O)[C@@H](O[C@H]7[C@H](O)[C@@H](O)[C@@H](O[C@H]8[C@H](O)[C@@H](O)[C@@H](O[C@H]1[C@H](O)[C@H]2O)O[C@@H]8CO)O[C@@H]7CO)O[C@@H]6CO)O[C@@H]5CO)O[C@@H]4CO)O[C@@H]3CO [β-cyclodextrin] | wider than that in the absence of surfactant | – |
| CCCCCCCCCCCCOS(=O)(=O)[O-].[Na+] [Sodium dodecyl sulfate] | wider than that in the absence of surfactant | – |
| (2-Hydroxypropyl)-β-cyclodetrin | wider than that in the absence of surfactant | – |
| Carboxymethyl-β-cyclodextrin | wider than that in the absence of surfactant | – |
| Oc1ccc(-n2cncn2)cc1 [4-(1,2,4-triazol-1-yl) phenol] | – | LOD, times lower than in the absence of catalyst [3]: ~10 times |
| OC[C@H]1O[C@@H]2O[C@H]3[C@H](O)[C@@H](O)[C@@H](O[C@H]4[C@H](O)[C@@H](O)[C@@H](O[C@H]5[C@H](O)[C@@H](O)[C@@H](O[C@H]6[C@H](O)[C@@H](O)[C@@H](O[C@H]7[C@H](O)[C@@H](O)[C@@H](O[C@H]8[C@H](O)[C@@H](O)[C@@H](O[C@H]9[C@H](O)[C@@H](O)[C@@H](O[C@H]1[C@H](O)[C@H]2O)O[C@@H]9CO)O[C@@H]8CO)O[C@@H]7CO)O[C@@H]6CO)O[C@@H]5CO)O[C@@H]4CO)O[C@@H]3CO [γ-cyclodextrin] | wider than that in the absence of surfactant | – |
| CCCCCCCCCCCCCCCC[N+](C)(C)C.[Br-] [Hexadecyltrimethylammonium bromide] | wider than that in the absence of surfactant | – |
| Oc1ccc(I)cc1 [4-Iodophenol] | – | LOD, times lower than in the absence of catalyst [3]: about 20 times; LOD, times lower than in the presence of 4-(1,2,4-triazol-1-yl) phenol [3]: about 2 times |
